Laboratory results taken from patent US20120258117A1, “Methods and compositions for modulation of histone ubiquitination” (priority 2011, published 2012).

Experiments:
[1] = system: U87 cells; assay: Clonogenic assay (plating efficiency); assay type: cell-based, human; details: up to 9 days treatment, re-plated 1000-4000 cells, 14 days without resveratrol, dose-dependent
Experimental: (§1) Monolayer cultures of glioma cells were trypsinized and appropriate cell dilutions were re-plated. After 14 days, cultured cells were stained with 0.4% Coomassie Blue G250 in 50% methanol and 5% acetic acid. Colonies of 50 cells or more were counted. Plating efficiencies (PE) were calculated using the formula PE=(number of colonies counted/number of cells seeded)×100%. […] Monolayer cultures of glioma cells were trypsinized and seeded 1000, 2000, and 4000 cells separately in 60 mm culture dishes for incubation without further resveratrol treatment. After two weeks, these cell cultures were stained with 0.4% Coomassie Blue G250 in 50% methanol and 5% acetic acid. Colonies that contained more than 50 cells were counted. Cell clonogenicity was calculated with plating efficiencies (PE) using the formula PE=(number of colonies counted/number of cells seeded)×100%.

[2] = system: U118 cells; assay: Clonogenic assay (plating efficiency); assay type: cell-based, human; details: up to 9 days treatment, re-plated 1000-4000 cells, 14 days without resveratrol, dose-dependent
Experimental: as §1

[3] = system: U87 cells; assay: Cell proliferation (viable cell count, Trypan blue exclusion); assay type: cell-based, human; details: cells counted at 3, 6 and 9 days post treatment, dose- and time-dependent
Experimental: (§2) U87 MG and U118 MG (hereafter abbreviated as U87, U118 respectively) human glioblastoma (glioma) cell lines were kindly provided by Dr. Hui Zhang and Dr. Hong Sun. MCF7 (human breast cancer), H1299 (non-small cell lung carcinoma), and PC3 (human prostate cancer) cell lines were obtained from Dr. Giuseppe Pizzorno. Normal human dermal fibroblasts, HDF and normal human mammary epithelial cells, HMEpC, were purchased from Cell Applications (San Diego, Calif.). U118, U87, and MCF7 cultures were grown in high-glucose DMEM supplemented with 10% Fetal Bovine Serum (FBS, HyClone, Waltham, Mass.) and 1% Penicillin/Streptomycin. H1299 was grown in RPMI with 10% FBS and 1% Pen/Strep. PC3 cells were in F12K Medium with 10% FBS and 1% antibiotics. […] Cell number was measured by a hemacytometer (Hausser Scientific, Horsham, Pa.). Cell population doubling time (Td) was calculated from the exponential portion of the growth curve using the equation Td=0.693t/ln(Nt/N0), where t is time, and Nt and N0 represent cell numbers at time t and initial time, respectively (Y. Zhang, et al., Cancer Res 62 (2002) 1205-12). […]
(§3) To examine the effects of resveratrol on glioma cells, 5×10^4 U87 or U118 glioblastoma (Grade IV glioma cell) lines were plated in 60 mm dishes. […] Cells were then trypsinized and cell numbers counted at 3, 6, and 9 days post treatment.

[4] = system: U118 cells; assay: as above; assay type: cell-based, human; details: cells counted at 3, 6 and 9 days post treatment, dose- and time-dependent
Experimental: as §2, §3

[5] = system: mono-ubiquitination of histone H2B at K120 (uH2B); assay: Western analysis of uH2B, chronic (up to 9-day) resveratrol treatment; assay type: cell-based, human
Experimental: (§4) For short-term resveratrol treatment, cells in 60 mm dishes were allowed to grow to 40%-50% confluency. Their original media were changed to 5 ml DMEM media containing glucose (4.5 g/L) as the only carbon source (without both L-glutamine and sodium pyruvate). After one hour of media change, cells were collected as non-treated or treated with 5 μL acetone or resveratrol in 5 μL acetone vehicle for 4 hours and then collected for Western analysis. For long-term resveratrol treatment, 3×10^5 of U87 or U118 glioma cells were plated in 100 mm dishes. One day later, the culture media were replaced with fresh medium (10 mL/dish). […]
(§5) Cultured cells were harvested on ice (3-5 min) by scraping in the medium, centrifuged with about 300 relative centrifugal forces (RCF) for 2 minutes. […] Total protein was separated by 12% SDS polyacrylamide gel electrophoresis and analyzed with antibodies to H2B (Millipore, Billerica, Mass.), mono-ubiquitinated H2B (uH2B, MediMabs, Montreal, Quebec, Canada), RNF20 (Abcam, Cambridge, Mass.), p53 (Santa Cruz Biotechnology, Santa Cruz, Calif.). Immunoreactive bands were detected using SuperSignal kit (Thermo Scientific, Waltham, Mass.). […]

[6] = system: U118 xenograft; assay: Growth of human tumor xenograft from resveratrol-pretreated cells; assay type: in vivo, nude (nu/nu) mice; details: U118 treated 9 days in culture, 2×10^6 viable cells s.c. in nude mice; volume at 125 days post injection
Experimental: (§6) U87 or U118 Cells (2,000,000 in 0.1 ml PBS) were injected subcutaneously in the right flank of the female nude (nu/nu) mice (4-6 weeks old; Charles River Laboratories, Wilmington, Mass.). Five nude mice were used for each group. U87 tumor volume was measured at 27 days post injection while U118 tumor volume at 125 days post injection. When tumors were palpable, they were measured by a Vernier caliper in indicated days after injection. Tumor volume (TV) was calculated as follows: TV (mm^3)=LXW^2/2, where L is the longest dimension of the tumor (in mm), and W is the shortest dimension of the tumor. […] Glioma cells were then trypsinized, and 2×10^6 viable cells (by Trypan blue exclusion assay) were collected in 0.1 ml PBS. These cells were subsequently injected subcutaneously in the right flank of nude mice [female (nu/nu), 4-6 weeks old, 5 mice per group]. When the tumor was palpable, the size was measured with a Vernier caliper. Tumor volume was calculated (TV) using the formula: TV (mm^3)=LXW^2/2, in which L was the longest dimension of the tumor (in mm), and W was the shortest dimension of the tumor.

[7] = system: U87 xenograft; assay: as above; assay type: in vivo, nude (nu/nu) mice; details: U87 treated 9 days in culture, 2×10^6 viable cells s.c. in nude mice; volume at 27 days post injection
Experimental: as §6

[8] = system: U87 cells; assay: Cellular hypertrophy / cell morphology; assay type: cell-based, human
Text: Specifically, resveratrol transformed spindle-shaped glioma cells to enlarged and irregular flatten-shaped ones. The mean diameter of the resveratrol-treated U87 was 5 fold longer than the diameter parallel to the spindle axis of the mock-or vehicle-treated glioma cells. In contrast, mock and vehicle (acetone) treatment had no effect on inducing cellular hypertrophy.
It was then examined whether depletion of RNF20 could induce cellular senescence in glioma cells. Depletion of RNF20 induced similar cellular hypertrophy as observed with resveratrol treatment. Specifically, depletion of RNF20 transformed spindle-shaped glioma cells into extremely enlarged and irregular flatten-shaped ones (data not shown).

[9] = system: U87 glioma cells; assay: Senescence-associated-β-galactosidase (SA-β-gal) staining; assay type: cell-based, human; details: resveratrol-induced hypertrophic cells
Experimental: (§7) Senescence-β-galactosidase staining was performed with a kit (Cat. #9860, Cell Signaling, Danvers, Mass.) according to manufacturer's protocol. Briefly, cells in 35 mm well were washed with 2 mL PBS, fixed for 10-15 minutes in 2 mL fixative solution, washed twice with 2 mL PBS, and then incubated in SA-β-gal staining solution overnight at 37° C. To determine whether cellular hypertrophy induced by resveratrol was associated with cellular senescence of glioma cells, expression of senescence-associated-β-galactosidase (SA-β-gal) marker was tested (G. P. Dimri, et al., Proc Natl Acad Sci USA 92 (1995) 9363-7; G. P. Dimri, et al., Biol Signals 5 (1996) 154-62).

[10] = system: U118 glioma cells; assay: as above; assay type: cell-based, human; details: resveratrol-induced hypertrophic cells
Experimental: as §7

[11] = system: mono-ubiquitination of histone H2B at K120 (uH2B); assay: Western analysis of uH2B, acute (4-hour) resveratrol treatment; assay type: cell-based, human
Experimental: as §4, §5

[12] = system: U118 cells; assay: Cellular hypertrophy / cell morphology; assay type: cell-based, human; details: resveratrol treatment

SMILES: Oc1ccc(/C=C/c2cc(O)cc(O)c2)cc1 [resveratrol, 3,4′,5-trihydroxy-trans-stilbene]
- clonogenicity (plating efficiency, colonies of more than 50 cells) [1]: marked decrease in their propensity for forming colonies
- clonogenicity (plating efficiency, colonies of more than 50 cells) [2]: marked decrease in their propensity for forming colonies
- proliferation of glioma cells (viable cell number) [3]: significantly inhibited proliferation
- proliferation of glioma cells (viable cell number) [4]: significantly inhibited proliferation
- uH2B level (Western) ([5]; U87, chronic treatment up to 9 days, 6, 20, 60 μM): inhibited uH2B
- uH2B level (Western) ([5]; U118, chronic treatment up to 9 days, 6, 10, 20 μM): inhibited uH2B
- tumorigenicity (tumor volume) in xenograft model [6]: inhibited the tumorigenecity
- tumorigenicity (tumor volume) in xenograft model [7]: inhibited the tumorigenecity
- mean diameter of treated cells versus diameter parallel to the spindle axis of mock- or vehicle-treated cells [8]: 5 fold
- cellular hypertrophy (cell volume and cell morphology) ([8]; resveratrol treatment): induced dramatic changes in cell volume and cell morphology
- expression of SA-β-gal senescence marker [9]: SA-β-gal was detected
- expression of SA-β-gal senescence marker [10]: SA-β-gal was detected
- uH2B level (Western) ([11]; 10, 100, 500 μM for 4 h, U87, U118, MCF7, H1299, PC3, HDF, HMEpC): inhibited uH2B within 4 hours in a dose-dependent manner
- uH2B level (Western) ([11]; acute incubation, high dose 500 μM): effective in inhibiting uH2B
- cellular hypertrophy (cell volume and cell morphology) [12]: induced dramatic changes in cell volume and cell morphology
